In patent US20140086938A1, “METHODS OF INHIBITING TUMOR GROWTH USING TTK ANTAGONISTS” (University Health Network, priority 2007, published 2014):

Key:
tumors = conditions: TNP-470 below maximum tolerated dose with cyclophophamide 170 mg/kg, every 6 days; cited from earlier work
SKBr-3 = experiment: SRB cell viability after siRNA transfection; assay type: cell-based, human; conditions: 40 nM siRNA, day 5 post-transfection, normalized over siCONTROL
Protocol: (§1) Different normal breast and breast cancer cell lines were used for siRNA transfection. Cells were seeded at various concentrations, ranging from 1500 to 6000 per well according to cell growth rate, into 96 well plates. 40 nM individual siRNAs or 40 nM siRNA pool including four individual siRNAs at 10 nM each were transfected into cells using Lipofectamine-2000 24 hrs after cell seeding. Cells were then incubated at 37° C. for five days before cell viability assay were conducted.
(§2) SRB assay was performed to assess cell survival. SRB is a water-soluble dye that binds to the basic amino acids of the cellular proteins. Thus, colorimetric measurement of the bound dye provides an estimate of the total protein mass and is related to the cell number. The cells were fixed in situ by gently aspirating off the culture media and adding 50 μl ice cold 10% Tri-chloroacetic Acid (TCA) per well and incubate at 4° C. for 30-60 min. The plates were washed with tap water five times and allowed to air dry for 5 min. 50 μl of 0.4% (w/v) Sulforhodamine B solution in 1% (v/v) acetic acid was added per well and incubated for 30 min at RT for staining. Following staining, plates were washed four times with 1% acetic acid to remove any unbound dye and then allowed to air dry for 5 min. The stain was solubilized with 100 μl of 10 mM Tris pH 10.5 per well. Absorbance was read at 570 mn. The cell survival percentage after each siRNA(s) knock down was calculated over the non-silencing control siCTRL or siPOOL as well as siTOX as a transfection efficiency control.
(§3) To assess the effects of TTK knockdown on the viability of breast cancer cells, various breast cancer cell lines were transfected with each of the four TTK-targeting siRNAs individually, the pooled siRNA containing all four of the TTK-targeting siRNAs, or the siCONTROL siRNA, all at a concentration of 40 nM. At day 5 post-transfection, the viability of the cells was determined using the SRB assay described herein.

T47D = experiment: SRB cell viability after siRNA transfection; assay type: cell-based, human; conditions: 40 nM siRNA, day 5 post-transfection, normalized over siCONTROL
Protocol: as §1, §2, §3

MCF-7 = experiment: SRB cell viability after siRNA transfection; assay type: cell-based, human; conditions: 40 nM siRNA, day 5 post-transfection, normalized over siCONTROL
Protocol: as §1, §2, §3

CAMA-1 = experiment: SRB cell viability after siRNA transfection; assay type: cell-based, human; conditions: 40 nM siRNA, day 5 post-transfection, normalized over siCONTROL
Protocol: as §1, §2, §3

MDA-MB-435 = experiment: SRB cell viability after siRNA transfection; assay type: cell-based, human; conditions: 40 nM siRNA, day 5 post-transfection, normalized over siCONTROL
Protocol: as §1, §2, §3

Hs578T = experiment: SRB cell viability after siRNA transfection; assay type: cell-based, human; conditions: 40 nM siRNA, day 5 post-transfection, normalized over siCONTROL
Protocol: as §1, §2, §3

HCC1419 = experiment: SRB cell viability after siRNA transfection; assay type: cell-based, human; conditions: 40 nM siRNA, day 5 post-transfection, normalized over siCONTROL
Protocol: as §1, §2, §3

MDA-MB-330 = experiment: SRB cell viability after siRNA transfection; assay type: cell-based, human; conditions: 40 nM siRNA, day 5 post-transfection, normalized over siCONTROL
Protocol: as §1, §2, §3

BT474 = experiment: SRB cell viability after siRNA transfection; assay type: cell-based, human; conditions: 40 nM siRNA, day 5 post-transfection, normalized over siCONTROL
Protocol: as §1, §2, §3

MDA-MB-468 = experiment: SRB cell viability after siRNA transfection; assay type: cell-based, human; conditions: 40 nM siRNA, day 5 post-transfection, normalized over siCONTROL
Protocol: as §1, §2, §3

MDA-MB-453 = experiment: SRB cell viability after siRNA transfection; assay type: cell-based, human; conditions: 40 nM siRNA, day 5 post-transfection, normalized over siCONTROL
Protocol: as §1, §2, §3

MDA-MB-231 = experiment: SRB cell viability after siRNA transfection; assay type: cell-based, human; conditions: 40 nM siRNA, day 5 post-transfection, normalized over siCONTROL
Protocol: as §1, §2, §3

MCF-7 (Luminal) = experiment: Cell cycle profile by flow cytometry after siRNA transfection; assay type: cell-based, human; conditions: for apoptosis, indicated by increased G2/M and <G1 populations: MCF7 breast cancer cells, flow cytometry, vs siCONTROL; for <G1 / G2/M: MCF-7, 40 nM siRNA, day 3 post-transfection; for <G1: siCONTROL (Neg. Control) 2.11; for G2/M: siCONTROL (Neg. Control) 16.17
Protocol: (§4) To assess the effects of TTK knockdown on the physiology of normal breast and breast cancer cell lines, luminal (MCF7) or basal-like (MDA-MB-435, MDA-MB-468) breast cancer cell lines, a lung cancer cell line (A549) and a normal breast cell line (184A1) each were transfected with 40 nM of TTK-targeting siRNA #2, siRNA #3, the pooled siRNA containing all four of the TTK-targeting siRNAs, or the siCONTROL siRNA. At day 3 post-transfection, the cell cycle profile of the transfected cells was analyzed by flow cytometry to determine the effects of TTK knockdown on cell cycle arrest and cell death. Depletion of TTK in cells transfected with TTK-targeting siRNAs caused significant cell cycle arrest and cell death.

184A1 (Normal) = experiment: as above; assay type: cell-based, human; conditions: 40 nM siRNA, day 3 post-transfection; for <G1: siCONTROL (Neg. Control) 1.03; for G2/M: siCONTROL (Neg. Control) 10.35
Protocol: as §4

MDA-MB-435 (Basal) = experiment: as above; assay type: cell-based, human; conditions: 40 nM siRNA, day 3 post-transfection; for <G1: siCONTROL (Neg. Control) 0.85; for G2/M: siCONTROL (Neg. Control) 18.77
Protocol: as §4

MDA-MB-468 (Basal) = experiment: as above; assay type: cell-based, human; conditions: 40 nM siRNA, day 3 post-transfection; for <G1: siCONTROL (Neg. Control) 4.09; for G2/M: siCONTROL (Neg. Control) 20.59
Protocol: as §4

A549 (Lung) = experiment: as above; assay type: cell-based, human; conditions: 40 nM siRNA, day 3 post-transfection; for <G1: siCONTROL (Neg. Control) 0.84; for G2/M: siCONTROL (Neg. Control) 10.57
Protocol: as §4

[1] = system: T-47D breast cancer cells; experiment: Colony formation in soft agar after siRNA transfection; assay type: cell-based, human; conditions: 40 nM siRNA, relative to siCONTROL, two independent experiments
Protocol: Cells were transfected with 40 nM individual siRNAs, 40 nM siRNA pool including four individual siRNAs at 10 nM each or 40 nM non-silencing control siCONTROL using Lipofectamine 2000 Transfection Reagent (Invitrogen Corporation), mixed with culture medium containing 0.7% agar in 6-well plates and cultured at 37° C. After 2 weeks, the top layer of the culture was stained with 0.2% p-iodonitrotetrazolium violet and colonies were counted using a Sorcerer Colony Counter (Optomax).
To determine the effects of siRNA-mediated knockdown of TTK gene expression on anchorage-independent cell growth in breast cancer cells, T-47D breast cancer cell line was transfected with either the siRNA#2 or siRNA#3 TTK-targeting siRNA, the siRNA POOL containing 4 TTK-targeting siRNAs or the siCONTROL non-targeting siRNA. Following transfection colony formation in soft agar was assessed.

Molecule	% survival (SKBr-3) [%]	% survival (T47D) [%]	% survival (MCF-7) [%]	% survival (CAMA-1) [%]	% survival (MDA-MB-435) [%]	% survival (Hs578T) [%]	% survival (HCC1419) [%]	% survival (MDA-MB-330) [%]	% survival (BT474) [%]	% survival (MDA-MB-468) [%]	% survival (MDA-MB-453) [%]	% survival (MDA-MB-231) [%]	apoptosis, indicated by increased G2/M and <G1 populations (MCF-7 (Luminal))	<G1 (MCF-7 (Luminal))	G2/M (MCF-7 (Luminal))	<G1 (184A1 (Normal))	G2/M (184A1 (Normal))	<G1 (MDA-MB-435 (Basal))	G2/M (MDA-MB-435 (Basal))	<G1 (MDA-MB-468 (Basal))	also measured
CO[C@@H]1[C@H](OC(=O)NC(=O)CCl)CC[C@]2(CO2)[C@H]1[C@@]1(C)O[C@@H]1CC=C(C)C [TNP-470]																					tumor response (tumors): complete regression of the tumors
siRNA #1: siRNA targeting human TTK: 5′-GCAAUACCUUGGAUGAUUA-3′ (SEQ ID NO: 3) (listed as RNA, chemistry not given here)	0.32	0.62	0.27	0.46	0.78	1.02	0.91	0.31	0.64	0.69	0.33	0.21									
siRNA #2: siRNA targeting human TTK: 5′-GGUAUUAACUGCCCAAGAA-3′ (SEQ ID NO: 4) (listed as RNA, chemistry not given here)	0.34	0.44	0.27	0.30	0.25	1.25	0.75	0.38	0.66	0.00	−0.04	−0.09	caused apoptosis of the cancer cells	12.03	25.18	5.35	27.75	4.69	19.89	15.10	G2/M (MDA-MB-468 (Basal)): 15.72; <G1 (A549 (Lung)): 6.03; G2/M (A549 (Lung)): 20.58; colonies formed in soft agar (number and size) [1]: reduction in the number of colonies; colonies formed in soft agar (number and size) ([1]; listed as siRNA#2): reduction in both colony size and number
siRNA #3: siRNA targeting human TTK: 5′-GCACGUGACUACUUUCAAA-3′ (SEQ ID NO: 5) (listed as RNA, chemistry not given here)	0.49	0.74	0.23	0.52	0.60	0.53	0.91	0.63	0.83	0.27	0.18	0.23	caused apoptosis of the cancer cells	5.61	65.23	3.92	17.49	2.66	40.08	11.12	G2/M (MDA-MB-468 (Basal)): 28.41; <G1 (A549 (Lung)): 11.38; G2/M (A549 (Lung)): 24.87; colonies formed in soft agar (number and size) [1]: reduction in the number of colonies; colonies formed in soft agar (number and size) ([1]; listed as siRNA#3): reduction in both colony size and number
siRNA #4: siRNA targeting human TTK: 5′-GAUAAGAUCAUCCGACUUU-3′ (SEQ ID NO: 6) (listed as RNA, chemistry not given here)	0.91	1.19	0.63	0.77	0.93	1.16	1.05	0.72	0.90	1.46	0.56	0.58									
